Measured values from PubChem BioAssay AID488890 (Southern Research Specialized Biocontainment Screening …, 2010).
pIC50: −log10 of the molar value. Inconclusive results are not listed. Calls of active or inactive are those of the source. No rule for the calls is given here.

Tested on: Mycobacterium tuberculosis non-replicating, growth inhibition
Assay: growth inhibition of non-replicating M. tuberculosis (AID 488890)

Compound	pIC50	IC50
Cc1cccc(Cc2cnc(NC(=O)C3=NCCN3)s2)c1	5.32	
O=C(Nc1ccccc1)c1cc2ccccc2o1	5.34	
Cc1ccc(N=Nc2c(C)[nH]n(C(N)=S)c2=O)cc1C	6.24	
C/C(=N\NC(=O)c1ccc(Cl)cc1)c1ccccn1	6.05	
CCOC(=O)c1c(NC(=O)C2COc3ccccc3O2)sc2c1CC(C)(C)NC2(C)C (stereo not drawn)		18.3 µM (inactive)
Cc1cc(C)n(-c2ccc(C(=O)Oc3ccc4c(c3)OCO4)cc2)n1		11.9 µM (inactive)
CC(C)(C)NCc1cc(Br)ccc1OCc1cccs1	5.04	
Cc1cc(C)n(-c2nc(NCCCO)c3c4c(sc3n2)CCCC4)n1		10.5 µM (inactive)
CCCc1cc(NCc2ccccn2)n2nc(C)c(-c3ccccc3)c2n1	5.65	
O=C(CCS(=O)(=O)c1ccc(Cl)cc1)Oc1ccc2c(c1)OCO2		22.7 µM (inactive)
Oc1oc(-c2ccco2)nc1C=Nc1cccc(Cl)c1	5.10	
O=c1[nH]c2ccccc2c2oc(CCl)nc12	5.37	
O=C(OCc1nnc(-c2ccccc2)o1)c1ccc(Br)o1	5.04	
O=C(NCc1ccccc1)c1cc2ccccc2oc1=O		43.8 µM (inactive)
CSc1nn(-c2ccc(C(=O)OCC(=O)NC(=O)NC(C)C)cc2)c(=S)s1		16 µM (inactive)
Cn1nnc(NC(=O)COc2ccc(C3CCCCC3)cc2)n1	5.77	
CN1CCC(O)(c2ccccc2)C(C(=O)c2ccccc2)C1 (stereo not drawn)	5.31	
CCOC(=O)c1ccc(NC(=O)CCSCCc2ccccn2)cc1		23.4 µM (inactive)
COc1cc(/C=N/Nc2ccc(Cl)c(C(=O)O)c2)ccc1OC(=O)c1ccco1		11.9 µM (inactive)
Cc1ccc(Sc2ccc(/C=C3/C(=O)NN(c4ccccc4)C3=O)o2)cc1	5.37	
CC(OC(=O)c1ccc([N+](=O)[O-])s1)C(=O)NC1CCCCC1C (stereo not drawn)	6.62	
C/C(=N\Nc1ccc(Cl)cc1)c1c(O)cc(C)oc1=O	5.44	
CC(NCc1ccc(OCc2ccc(Cl)cc2)cc1)C(O)c1ccccc1 (stereo not drawn)	5.16	
CCCOC(=O)c1ccc(NC(=O)c2ccccc2OC)cc1		18.1 µM (inactive)

Compound	pIC50	IC50
O=C(Nc1nnc(-c2ccc(Cl)cc2)o1)c1nc2ccccc2s1	6.60	
O=C(Nc1nc2c(F)cc(F)cc2s1)c1ccccn1	5.67	
Cc1c([N+](=O)[O-])cnc(Sc2ccccc2)c1[N+](=O)[O-]	5.19	
O=C(NCc1nnc(SC/C=C/c2ccccc2)o1)c1ccco1	5.37	
CCC(=O)N/N=C/c1ccc(-c2ccc(Cl)cc2)o1	5.08	
Nc1nnnn1/N=C/C(Br)=C/c1ccccc1		13.5 µM (inactive)
CCOC(=O)COc1ccc(C2CC(C)=NN2c2ccccc2)cc1 (stereo not drawn)	5.59	
CN(C)CC/C=C1/c2ccc(F)cc2Sc2ccc(Cl)cc21	5.09	
CN1CCN(C2Cc3ccccc3Sc3cc(C(F)(F)F)ccc32)CC1 (stereo not drawn)		12 µM (inactive)
COC(=O)COc1ccc2c(=O)c(-c3ccccc3)coc2c1	> 7.00	
CN1/C(=C\C(=O)COC(=O)c2ccc([N+](=O)[O-])o2)C(C)(C)c2ccccc21	5.44	
Fc1ccc(-c2nnc(-c3ccc(F)cc3)o2)cc1	5.08	
Cc1ccc(S(=O)(=O)NCC(=O)OCCOc2cccc(Cl)c2)cc1		27.7 µM (inactive)
CC(NC(=O)c1cc([N+](=O)[O-])cc([N+](=O)[O-])c1)c1ccc(-n2ccnc2)cc1 (stereo not drawn)	5.27	
CCCc1nnc(-c2ccc(OC)cc2)o1	5.91	
CC12CN3CC(C)(CN(C1)C3c1ccc([N+](=O)[O-])o1)C2 (stereo not drawn)	5.37	
O=C1CC(N2CCN(c3ccccc3)CC2)C(=O)N1CCc1ccccc1 (stereo not drawn)		14 µM (inactive)
O=C(N/N=C/C=C/c1ccccc1)c1cccs1		45.2 µM (inactive)
CCOC(=O)c1ccc(N=CC2=C(O)CC(C)(C)CC2=O)cc1	5.41	
COc1cc2c(cc1OC)CN(CCC(=O)c1ccc(Br)cc1)CC2	5.22	
Cc1cccc2cc(C#N)c(NCCCn3ccnc3)nc12		23.3 µM (inactive)
O=C(OCC#CCSc1nc2ccccc2o1)c1ccco1	5.24	
Cc1ccc(/C=C2/C(=O)NC(=O)N(CCc3ccc(F)cc3)C2=O)s1		16.7 µM (inactive)
COc1cc(C(=O)ON=C2C=C(C)C(=O)C(C)=C2)cc(OC)c1OC		48.6 µM (inactive)

Compound	pIC50	IC50
NC1CCN(c2c(F)cc3c(=O)c(C(=O)O)cn(C4CC4)c3c2Cl)C1 (stereo not drawn)	6.82	
CSc1ccc(COC(=O)CCS(=O)(=O)c2ccc(C)cc2)cc1		19.2 µM (inactive)
COC(=O)c1cccc(COC(=O)c2cc3ccccc3oc2=O)c1		11.7 µM (inactive)
CC1CCC/C(=C\Nc2ccc(C(=O)O)c(O)c2)C1=O (stereo not drawn)	> 7.00	
C#CCSc1nnc(-c2ccc(C)cc2)o1	6.09	
CC(=O)c1ccc(-n2cc(-c3ccc(C(C)(C)C)cc3)[n+]3c2SCCC3)cc1	5.21	
O=C(CCN1CCC(c2ccccc2)C1)c1ccccc1 (stereo not drawn)		33.1 µM (inactive)
NC(N)=N/N=C/c1cn(-c2ccccc2)nc1-c1cccs1	5.22	
CCOc1ccc(C(=O)Nc2ccc(N3CCN(C)CC3)cc2)cc1Br		30.5 µM (inactive)
CC(CN1CCOCC1)OC(=O)c1ccc(Br)cc1 (stereo not drawn)	5.82	
O=[N+]([O-])c1ccc(S(=O)(=O)c2cccc(C(F)(F)F)c2)nc1	> 7.00	
COc1ccc(NC(=O)c2cc([N+](=O)[O-])ccc2O)cc1	5.11	
Oc1ccc(Cl)cc1CNCc1ccc(F)cc1		11.1 µM (inactive)
N#C/C(N=Nc1ccccc1O)=N\Nc1ccccc1O	5.57	
CC(C)OC(=O)COc1ccc(-c2ccccc2)cc1	5.49	
O=c1oc(-c2cccs2)nc2c1cnn2-c1ccccc1	6.37	
CC(=O)Nc1nc2ccccc2n1Cc1ccc(C)cc1	5.49	
CCOC(=O)COc1ccc2c(c1)c(C(=O)OCC)c(C)n2CC		10.9 µM (inactive)
O=C(CCS(=O)(=O)c1ccc(F)cc1)Nc1nc(-c2ccccn2)cs1	5.13	
CC(C)(C)c1ccc(OCCCC(=O)NC2=NCCS2)cc1	5.01	
CCOC(=O)c1cn(Cc2cccc(Cl)c2)nn1	5.10	
CCc1cc(OCCCCNCc2ccccc2)ccc1Cl		11.3 µM (inactive)
O=C(Oc1ccccc1)c1cccc(COC(=O)c2cnccn2)c1		28.6 µM (inactive)
COc1ccccc1NC(=O)C(=O)/C=C(\O)c1ccccc1		15.4 µM (inactive)

Compound	pIC50	IC50
CCn1c(NC(=O)c2ccccc2)nc2ccccc21	5.35	
CN(C)c1nc(-c2ccccn2)nnc1-c1ccccc1	5.01	
CC1C/C(=N/NC(=O)c2cccc(F)c2)c2ccc(O)cc2C1 (stereo not drawn)		14 µM (inactive)
O=C(NNC(=O)c1ncc(Cl)c(Cl)c1Cl)c1ccc(F)cc1		15.1 µM (inactive)
Cc1ccc(NCCC(=O)c2cccs2)cc1C	5.22	
O=C(c1cc2ccccc2o1)c1nc2c(n1O)CCCCC2		12.8 µM (inactive)
CCSc1nsc(NC(=O)Nc2ccc(F)cc2F)n1		18.9 µM (inactive)
COc1ccc(CN=C(C#N)C2=C(O)c3ccccc3C2=O)cc1	5.07	
C/C(=N\Nc1nc2ccccc2[nH]1)c1ccc(N2CCOCC2)cc1		10.5 µM (inactive)
Cc1cccc(OC(=O)c2sc3ncn(C)c(=O)c3c2C)c1	5.34	
CCCCCCCCCCn1ccc(=N)cc1		14.5 µM (inactive)
O=C(O)c1[nH]c(=O)[nH]c(=O)c1F	5.24	
CC1=NN(C(=O)c2ccccc2F)C(O)(c2ccc(Cl)cc2)C1 (stereo not drawn)	6.30	
O=C(OCCCOC(=O)c1ccc([N+](=O)[O-])o1)c1ccc([N+](=O)[O-])o1	5.91	
CC1CCCN(CCSc2ccc(Cl)cc2)C1 (stereo not drawn)	5.29	
CCN(CC)c1ccc2c(c1)oc(=O)c1c(Cl)cc(=O)oc12	5.43	
CCOc1cccc2cc(C(=O)NC(C)c3ccccc3)c(=N)oc12 (stereo not drawn)		32.9 µM (inactive)
COc1ccc(-c2[nH]ncc2CN2CCCCCCC2)c(OC)c1		11 µM (inactive)
Cc1cccc(/C=C/c2onc(C)c2[N+](=O)[O-])n1		15 µM (inactive)
CC(C)C(=O)Nc1cccc(-c2nc3ccccc3c(=O)o2)c1	5.42	
Cc1ccc(OC(=O)c2sc3ncn(C)c(=O)c3c2C)cc1		14.2 µM (inactive)
CC(C)Cc1cc(C(=O)Nc2ccc(F)cc2F)no1	5.63	
CCC(C)c1ccc(O)c(/C=N/O)c1 (stereo not drawn)	5.61	
O=C(CCCSc1nc2ccccc2s1)NCc1ccco1		10.7 µM (inactive)

Compound	pIC50	IC50
N/C(=N/OC(=O)c1ccccc1Cl)c1ncc([N+](=O)[O-])s1	5.50	
CC1=NN(c2ccc(C(=O)O)cc2)C(=O)/C1=C\c1ccc(OC(=O)c2cccs2)cc1	5.12	
Cc1ccccc1OCCC(=O)OCC(=O)NNC(=O)c1cccs1		21.4 µM (inactive)
Cc1[nH]n2c(=O)c3c(nc2c1-c1ccc(Cl)cc1)CCC3	5.47	
CC1(O)CC(c2ccc(Cl)cc2)=NN1C(=O)c1ccc([N+](=O)[O-])cc1 (stereo not drawn)	6.74	
COc1ccc(NC(=O)c2nc3ccccc3s2)cc1	5.03	
CCc1ccc(OCCCC(=O)NCc2ccco2)cc1	5.29	
COc1ccc(NC(=O)COc2ccc3c(c2)CCC3)cc1	5.34	
FC(F)(F)c1ccc(-c2nnc(-c3cccnc3)o2)cc1	5.19	
Cc1cc(Cl)ccc1NNC(=O)c1cccs1		14.5 µM (inactive)
O=C(N/N=C/c1ccc[nH]1)c1ccc(Cl)cc1	5.41	
CCN1CCC(=NNC(=O)c2ccco2)CC1		42.6 µM (inactive)
COc1ccc(C(=O)CCS(=O)(=O)c2ccc(C)cc2)cc1OC	5.39	
COC(=O)C(O)(c1ccc(NC(=S)NC(=O)c2ccccc2)cc1)C(F)(F)F (stereo not drawn)		14.8 µM (inactive)
O=C(Nc1ccccc1F)c1ccc(CSc2ccccc2)o1	5.36	
O=C(Nc1cccnc1)c1ccc(-c2ccc(Cl)cc2)o1	5.29	
O=[N+]([O-])c1cc(Cl)cc(/C=N\Nc2ccccn2)c1O	5.93	
Cc1ccc(C(=O)CCC2CCCC2=O)cc1 (stereo not drawn)		14.4 µM (inactive)
COC(=O)c1ccccc1Sc1ncnc2onc(C)c12	5.18	
COc1ccc(C(=O)NCC(=O)N/N=C/c2ccc([N+](=O)[O-])o2)cc1OC	5.30	
Oc1ccc2cc(Br)ccc2c1CN1CCCC1	5.14	
O=C(NC(=S)NNC(=O)[C@H]1C[C@@H]1c1ccccc1)c1cccc(F)c1	5.17	
